Experimental data as given in US10945989B2, “Perinatal treatment with a flavonoid agonist of the TrkB receptor for BDNF rescues neurogenesis and behavior in the Ts65Dn mouse model of DS” (ALMA MATER STUDIORUM—Universita' di Bologna, priority 2017, dated 2021).

Assays:
[1] = tested on: NPCs from the SGZ of Ts65Dn mice; experiment: Neuron maturation: cells exhibiting neuritic processes, SGZ NPCs; type: cell-based, mouse; details: 96 h, vs standard medium
Method: Cells were isolated from the subventricular zone (SVZ) of the lateral ventricle and the subgranular zone (SGZ) of the hippocampal dentate gyrus (DG) of newborn (P1-P2) euploid and Ts65Dn mice. Briefly, brains were removed, the SVZ and SGZ regions were isolated and individually collected in ice-cold PIPES buffer pH 7.4. After centrifugation, tissue was digested for 10 min at 37° C. using Trypsin/EDTA 0.25% (Life Technologies) aided by gentle mechanical dissociation. Cell suspension from each individual mouse was plated onto 25 cm^2 cell-culture flask (Thermo Fisher Scientific) and cultured as floating neurospheres in medium containing basic fibroblast growth factor (bFGF, 10 ng/ml; Peprotech) and epidermal growth factor (EGF, 20 ng/ml; Peprotech) using an established protocol (Meneghini et al., 2014). […] Cell proliferation was quantified as relative luminescence units (RLU) values using Cell Titer-Glo viability assay reagent (Promega) on aVictor^3-V plate reader (PerkinElmer). […] In each experiment, five fields/well (corresponding to about 150-200 cells/well) were counted with a 60× objective by a Leica DMIRB inverted fluorescence microscope. Immunoreactive cells were counted and their percentage over total viable cells was calculated. […]

[2] = tested on: proliferating cells in the SGZ; experiment: Prenatal treatment: BrdU-positive cells in the SGZ of P2 mice; type: in vivo, mouse
Method: Conception was determined by examining the vaginal plug. […] After sacrifice, brain was excised and weighed.
One of 20 sections (n=8-10) from the beginning to the end of the hippocampal formation were subjected to double-fluorescence immunohistochemistry for BrdU and NeuN. Sections were incubated overnight at 4° C. with a primary antibody, rat monoclonal anti-BrdU antibody (AbD Serotec), diluted 1:100 in 0.1% Triton X-100 in PBS and either mouse monoclonal anti-NeuN (Millipore Bioscience Research Reagents) diluted 1:400 in 0.1% Triton X-100 in PBS. Sections were then washed in 0.1% Triton X-100 in PBS for 40 min and incubated for 2 h with a Cy3-conjugated anti-rat IgG (1:200; Jackson Immunoresearch) secondary fluorescent antibody for BrdU immunohistochemistry and FITC-conjugated anti-mouse IgG (1:200; Jackson Immunoresearch) for NeuN immunohistochemistry.
BrdU-positive cells were sampled in the caudal subventricular zone (SVZ) of the lateral ventricle overlying the dentate gyrus and from the subgranular zone (SGZ) of the dentate gyrus (FIG. 10A). The caudal SVZ is the region that stretches from the beginning to the end of the hippocampal formation (BC: 3.27-4.84 mm). Since different regions of the ventricular zone (VZ) and SVZ give origin to neurons destined to different telecephalic areas (Brazel et al., 2003), we evaluated the effects of treatment both in the dorsal and lateral part of the SVZ (FIG. 10B). For cell counting, an area was traced enclosing the whole SVZ and all cells in this area were counted. While at later life stages, neural progenitor cells are only present in the SGZ of the dentate gyrus, in P2 pups proliferating cells can be detected in the perspective molecular layer and hilus. Therefore, cells were counted within a manually-traced area enclosing the whole dentate gyrus (FIG. 10B). […] Quantification of BrdU-labeled nuclei was conducted in every 20th section. The total number of BrdU labeled cells in the SVZ and SGZ was estimated by multiplying the number counted in the sampled sections by the inverse of the section sampling fraction (ssf= 1/20).

[3] = tested on: synaptophysin (SYN); experiment: Western blot of hippocampal homogenates: synaptophysin; type: in vivo, mouse
Method: Euploid and Ts65Dn mice received a daily subcutaneous injection (at 9-10 am) of 7,8-DHF (5.0 mg/kg in vehicle: PBS with 1% DMSO) or vehicle from postnatal day 3 (P3) to postnatal day 15. This timing was chosen because it corresponds to that previously used to test the effects of fluoxetine and other pharmacotherapies in the neonate Ts65Dn mouse (Bianchi et al., 2010b; Giacomini et al., 2015; Stagni et al., 2016). Mice that received 7,8-DHF will be called “treated mice” (treated euploid mice: n=25; treated Ts65Dn mice: n=15). Mice that received the vehicle will be called “untreated mice” (untreated euploid mice: n=35; untreated Ts65Dn mice: n=21). […] The brains were excised and cut along the midline. The left hemisphere of a group of mice was fixed by immersion in PFA 4% and frozen, and the left hemisphere of another group of mice was used for Golgi staining. […]
In homogenates of the hippocampal formation of P15 mice, total proteins were obtained as previously described (Trazzi et al., 2011) and the levels of the following proteins were evaluated: BDNF, TrkB full length (TrkB-FL), phosphorylated TrkB (p-TrkB), the truncated form 1 of the TrkB receptor (TrkB-T1), phosphorylated ERK1 (p-ERK1), phosphorylated ERK2 (p-ERK2), ERK1, ERK2, synaptophysin (SYN), GAPDH and α-Tubulin using the antibodies reported in Table 1. […]

Structure (SMILES): O=c1cc(-c2ccccc2)oc2c(O)c(O)ccc12 [7,8-DHF, 7,8-dihydroxyflavone]
- concentrations that increased the percentage of cells exhibiting neuritic processes [1]: higher than 1.1 μM
- total number of BrdU-positive cells in the SGZ, treated Ts65Dn vs untreated euploid mice ([2]; P2, treated E10-E20/21): no differences in total number of BrdU-positive cells
- total number of BrdU-positive cells in the SGZ ([2]; P2 Ts65Dn mice, dams 5 mg/kg s.c. E10-E20/21, untreated Ts65Dn approx. 12850, euploid approx. 17500): approximately 16800
- increase in cell number in the SGZ vs untreated Ts65Dn ([2]; P2 Ts65Dn mice, treated E10-E20/21): +30%
- SYN levels in the hippocampus ([3]; P15 Ts65Dn mice, became similar to untreated euploid mice): increased SYN levels
- SYN levels in the hippocampus ([3]; P15 euploid mice, vs untreated counterparts): increase in SYN levels
